The numbers were not newly measured in article PMC6680430, “Quantitative Prediction of Human Pharmacokinetics and Pharmacodynamics of CKD519, a Potent Inhibitor of Cholesteryl Ester Transfer Protein (CETP)” (Pharmaceutics, 2019), which cites them from elsewhere.

The test system of this series is CETP. Particulars: cited from earlier work.

As to `COc1cc(F)c(C(C)C)cc1-c1ccc(C(F)(F)F)cc1CN1C(=O)O[C@H](c2cc(C(F)(F)F)cc(C(F)(F)F)c2)[C@@H]1C` [anacetrapib], the “peak effect, inhibition of CETP” value (exposure-response from literature) is ~ 90%. Also, the IC50 (known in vivo value for the comparator, read-out: in vivo IC50 (plasma concentration for half of maximum CETP inhibition)) is 22 nM.
